Source: patent US20120238767A1, “ANTIOXIDANT INFLAMMATION MODULATORS: NOVEL DERIVATIVES OF OLEANOLIC ACID” (priority 2008, published 2012)
In brackets after ≈: the same amount, converted by molar mass.

Key:
[1] = Aqueous solubility determination (Millipore Multiscreen solubility filter plate, UV/vis); type: physicochemical; details: kinetic from dmso stock; Universal Aqueous Buffer pH 7.4, 90 minutes at room temperature
Experimental: Aqueous Solubility Determination. The following procedure was used to obtain the aqueous solubility results summarized in Example 4. Step 1. Determination of optimal UV/vis wavelengths and generation of standard curves for a compound of interest: • (1) For eight standard calibration curves (one plate), prepare 34 mL of 50:50 (v:v) universal buffer:acetonitrile in a 50 mL tube. • (2) Using a multichannel pipet, dispense (in μL) the buffer:acetonitrile in a deep well plate as follows:
• (3) Using a multichannel pipet, dispense DMSO into the same plate as follows:
• (4) Add 10 mM compound in DMSO into the plates as follows:
• (5) Mix columns 1 and 2 by pipetting each up and down 10 times. Mix columns 3 and 4 by pipetting up and down 10 times. Serially dilute as follows (pipet up and down 10 times after each transfer):
• (6) Cover plate with lid and shake (200-300 rpm) at room temperature for 20 minutes. • (7) Mix all wells by pipetting up and down 10 times. • (8) Transfer 120 μL from each well to a UV transparent plate. Cover and shake for 3-5 minutes. Remove any bubbles in the wells using a pipet. • (9) Read from 220 nm to 500 nm at 10 nm increments on a spectrophotometer (e.g., SpectraMax®).
Step 2. Compound Solubility Testing Procedures using the Millipore™ Multiscreen® Solubility Filter Plate. […]
Solubility Protocol: • (a) Add 285 μL of Universal Aqueous Buffer to desired wells of the Millipore™ Multiscreen® Solubility filter plate. • (b) Add 15 μL of 10 mM compound in DMSO to the appropriate wells. […] Remove any bubbles with a pipet. • (i) Measure the absorbance of each well in the plate on the spectrophotometer (UV/vis) at the desired wavelength. For compounds in a plate with different absorbance peaks, set the spectrophotometer to read a spectrum (e.g., from 220 nm to 460 nm). • (j) Identify concentration using measured absorbance for each compound and the predetermined standard curve (see Step 1).

RAW264.7 macrophages = assay: Cell viability (WST-1 reagent); type: cell-based, mouse; details: Mus musculus, RAW264.7, 20 ng/ml IFNγ
Experimental: (§1) FIGS. 1-11 and 22. Inhibition of NO Production. RAW264.7 macrophages were pre-treated with DMSO or drugs at various concentrations (nM) for 2 hours, then treated with 20 ng/ml IFNγ for 24 hours. NO concentration in media was determined using a Griess reagent system; cell viability was determined using WST-1 reagent. Nitric Oxide production and cell viability. RAW264.7 macrophages were pre-treated with DMSO or drugs for 2 hours, then treated with recombinant mouse IFNγ (Sigma) for 24 hours. NO concentration in media was determined using the Griess reagent system (Promega). Cell viability was determined using WST-1 reagent (Roche).

[2] = system: IFNγ-induced NO production in RAW264.7 macrophages; assay: Suppression of IFNγ-induced NO production (Griess reagent); type: cell-based, mouse; details: Mus musculus; RAW264.7, 20 ng/ml IFNγ for 24 hours, 2 hours pre-treatment
Experimental: as §1

Row | SMILES | solubility at 90 min [1] | IC50 [2] | IC50 (RAW264.7 macrophages)
1 | CC1(C)CC[C@]2(C(=O)NCC(F)(F)F)CC[C@]3(C)[C@H](C(=O)C=C4[C@@]5(C)C=C(C#N)C(=O)C(C)(C)[C@@H]5CC[C@]43C)[C@@H]2C1 [Compound 63102, reference compound] | 0.06 µM (≈ 0.0344 µg/mL) | – | –
2 | COC(=O)[C@]12CCC(C)(C)C[C@H]1[C@H]1C(=O)C[C@@H]3[C@@]4(C)C=C(C#N)C(=O)C(C)(C)[C@@H]4CC[C@@]3(C)[C@]1(C)CC2 [Compound 63219] | 13.6 µM (≈ 6.89 µg/mL) | – | –
3 | COC(=O)[C@]12CCC(C)(C)C[C@H]1[C@H]1C(=O)C=C3[C@@]4(C)C=C(C#N)C(=O)C(C)(C)[C@@H]4[C@H](O)C[C@@]3(C)[C@]1(C)CC2 [Compound 63307, (4aS,6aR,6bS,8R,8aR,12aS,14aR,14bS)-methyl 11-cyano-8-hydroxy-2,2,6a,6b,9,9,12a-heptamethyl-10,14-dioxo-1,2,3,4,4a,5,6,6a,6b,7,8,8a,9,10,12a,14,14a,14b-octadecahydropicene-4a-carboxylate] | – | ~60 nM | > 200 nM

Continued, in another order:

Row | solubility at 90 min [1] | IC50 [2] | SMILES | IC50 (RAW264.7 macrophages)
4 | 164 µM (≈ 75.7 µg/mL) | – | CC1(C)CC[C@]2(N)CC[C@]3(C)[C@H](C(=O)C=C4[C@@]5(C)C=C(C#N)C(=O)C(C)(C)[C@@H]5CC[C@]43C)[C@@H]2C1 [Compound 63198] | –
5 | – | ~12 nM | COC(=O)[C@]12CCC(C)(C)C[C@H]1[C@H]1C(=O)C=C3[C@@]4(C)C=C(C#N)C(=O)C(C)(C)[C@@H]4C(=O)C[C@@]3(C)[C@]1(C)CC2 [Compound 63309, (4aS,6aR,6bS,8aR,12aS,14aR,14bS)-methyl 11-cyano-2,2,6a,6b,9,9,12a-heptamethyl-8,10,14-trioxo-1,2,3,4,4a,5,6,6a,6b,7,8,8a,9,10,12a,14,14a,14b-octadecahydropicene-4a-carboxylate] | > 200 nM
6 | – | ~80 nM | COC(=O)[C@]12CCC(C)(C)C[C@H]1[C@H]1C(=O)C=C3[C@@]4(C)[C@@H](O)[C@](O)(C#N)C(=O)C(C)(C)[C@@H]4CC[C@@]3(C)[C@]1(C)CC2 [Compound 63316, (4aS,6aR,6bS,8aR,11R,12R,12aS,14aR,14bS)-methyl 11-cyano-11,12-dihydroxy-2,2,6a,6b,9,9,12a-heptamethyl-10,14-dioxo-1,2,3,4,4a,5,6,6a,6b,7,8,8a,9,10,11,12,12a,14,14a,14b-icosahydropicene-4a-carboxylate] | > 200 nM
